Earlier results as cited in patent publication EP2818484A1, “Synergistic combination of an anti-IgE antibody and an EP2 receptor agonist” (Universitat Autònoma de Barcelona, priority 2013, dated 2014).

System: human lung mast cells
Conditions: Kay et al., British Journal of Pharmacology 2006, 147, 707

SMILES	activation of human lung mast cells
CCCCC[C@H](O)/C=C/[C@H]1[C@H](O)CC(=O)[C@@H]1C/C=C\CCCC(=O)O [PGE2]	inhibit activation
CCCC1([C@H](O)C/C=C/[C@H]2[C@H](O)CC(=O)[C@@H]2CCCCCCC(=O)OC)CCC1 [butaprost]	inhibit activation
